Patent US20220396577A1, “NOVEL SUBSTITUTED 1,3-8-TRIAZASPIRO[4,5] DECANE-2,4-DIONE COMPOUNDS AS INDOLEAMINE 2,3-DIOXYGENASE (IDO) AND/OR TRYPTOPHAN 2,3-DIOXYGENASE (TDO) INHIBITORS” (Merck Sharp & Dohme LLC, priority 2019, published 2022)

Legend:
[1] = target: MELK (Homo sapiens, UniProt Q14680); test: Off-target kinase panel, ZLYTE: MELK; format: biochemical; conditions: read-out: Estimated IC50 (uM) MELK
From the text: (§1) The activity data was obtained in a panel of 265 and 264 for compounds 1-1 and CC-1, respectively, using the ZLYTE and ADAPTA assay methods indicated in the table below.
(§2) The ZLYTE biochemical assay employs a fluorescence-based, coupled-enzyme format and is based on the differential sensitivity of phosphorylated and non-phosphorylated peptides to proteolytic cleavage. The peptide substrate is labeled with two fluorophores—one at each end—that make up a Fluorescence Resonance Energy Transfer (FRET) pair.
(§3) In the primary reaction, the kinase transfers the gamma-phosphate of ATP to a single tyrosine, serine or threonine residue in a synthetic FRET-peptide. In the secondary reaction, a site-specific protease recognizes and cleaves non-phosphorylated FRET-peptides. Phosphorylation of FRET-peptides suppresses cleavage by the Development Reagent. […] A ratiometric method, which calculates the ratio (the Emission Ratio) of donor emission to acceptor emission after excitation of the donor fluorophore at 400 nm, is used to quantitate reaction progress, as shown in the equation below. […]
(§4) Both cleaved and uncleaved FRET-peptides contribute to the fluorescence signals and therefore to the Emission Ratio. The extent of phosphorylation of the FRET-peptide can be calculated from the Emission Ratio. […]
(§5) 10. Read on fluorescence plate reader and analyze the data.

[2] = target: CDK5/P35 (Homo sapiens, UniProt Q00535); test: Off-target kinase panel, ZLYTE: CDK5/P35; format: biochemical; conditions: read-out: Estimated IC50 (uM) CDK5/P35
From the text: as §1, §2, §3, §4, §5

[3] = target: TYK2 (Homo sapiens, UniProt P29597); test: Off-target kinase panel, ZLYTE: TYK2; format: biochemical; conditions: read-out: Estimated IC50 (uM) TYK2
From the text: as §1, §2, §3, §4, §5

[4] = target: CDK2 (Homo sapiens, UniProt P24941); test: Off-target kinase panel, ZLYTE: CDK2; format: biochemical; conditions: read-out: Estimated IC50 (uM) CDK2
From the text: as §1, §2, §3, §4, §5

[5] = target: T1, TDO (Homo sapiens, UniProt P48775); test: TDO Cellular Assay (C), SW48 cells; format: cell-based; conditions: 48 hours, second value of cell
T1 construct: endogenous in cells; host or cells: SW48 cells
Procedure: Compounds were serially diluted in DMSO and acoustically dispensed (LabCyte Echo) into each well of a black 384-well cell culture plate (Greiner). SW48 cells were diluted to a density of 2×10^5 cells/ml in complete RPMI culture medium supplemented with […] L-tryptophan and […] SW48 cells were dispensed to each well of 384-well plates with a compound. Plates are gently shaken and then incubated for 48 hours at 37° C. in an incubator with 5% CO2. After incubation, 12 μl of the detection agent (0.5 M isonipecotate in DMSO) was added to each well and incubated at 37° C. overnight. The fluorescent signal was read on a Spectramax plate reader with excitation at 400 nm and emission at 510 nm. The percent inhibition was determined by normalization to wells containing no compound relative to wells receiving no cells.

[6] = target: IDO1 (Homo sapiens, UniProt P14902); test: IDO1 Cellular Assay in HeLa Cells Stimulated with IFNγ (B); format: cell-based; parameters: endogenous in cells; host or cells: HeLa cells stimulated with IFNγ; conditions: about 48 h, first value of cell, read-out: IDO hela (B) cell IC50
Procedure: HeLa cells were cultured in complete HeLa culture medium (90% EMEM, 10% heat-inactivated fetal bovine serum) and expanded to about 1×10^9 cells. The cells were then collected and frozen down at 1×10^7 cells/vial in 1 mL frozen medium (90% complete HeLa culture medium, 10% DMSO).
Compounds to be tested were serially diluted in ten 3-fold steps in DMSO starting from 10 mM DMSO stocks in Echo low volume plate(s). Compound dilutions or DMSO alone were then dispensed from the dilution plate(s) into Greiner black 384-well assay plate(s) (catalog #781086, 50 nL/well) using an Echo 550 acoustic liquid handler (Labcyte).
Frozen HeLa cells were thawed and transferred into HeLa assay medium (99% complete HeLa culture medium, 1% Pen/Strep) with 20 mL medium/vial of cells. […] The cells were then counted and adjusted to a density of 2×10^5 cells/mL in HeLa assay medium. […]
HeLa cells with and without IFNγ were dispensed to the respective wells of 384-well assay plates containing the compounds. […] The resulting fluorescence was measured in a Spectramax plate reader (Molecular Devices) with a 400 nm excitation filter and a 510 nm emission filter.
The fluorescence intensity of each well was corrected for the background observed in wells with non-IFNγ-treated cells and was expressed as a fraction of the intensity observed in wells of IFNγ-treated cells and DMSO only. […]

[7] = target: CDK5/P25 (Homo sapiens, UniProt Q00535); test: Off-target kinase panel, ZLYTE: CDK5/P25; format: biochemical; conditions: read-out: Estimated IC50 (uM) CDK5/P25
From the text: as §1, §2, §3, §4, §5

MELK, sequence (Q14680 whole entry): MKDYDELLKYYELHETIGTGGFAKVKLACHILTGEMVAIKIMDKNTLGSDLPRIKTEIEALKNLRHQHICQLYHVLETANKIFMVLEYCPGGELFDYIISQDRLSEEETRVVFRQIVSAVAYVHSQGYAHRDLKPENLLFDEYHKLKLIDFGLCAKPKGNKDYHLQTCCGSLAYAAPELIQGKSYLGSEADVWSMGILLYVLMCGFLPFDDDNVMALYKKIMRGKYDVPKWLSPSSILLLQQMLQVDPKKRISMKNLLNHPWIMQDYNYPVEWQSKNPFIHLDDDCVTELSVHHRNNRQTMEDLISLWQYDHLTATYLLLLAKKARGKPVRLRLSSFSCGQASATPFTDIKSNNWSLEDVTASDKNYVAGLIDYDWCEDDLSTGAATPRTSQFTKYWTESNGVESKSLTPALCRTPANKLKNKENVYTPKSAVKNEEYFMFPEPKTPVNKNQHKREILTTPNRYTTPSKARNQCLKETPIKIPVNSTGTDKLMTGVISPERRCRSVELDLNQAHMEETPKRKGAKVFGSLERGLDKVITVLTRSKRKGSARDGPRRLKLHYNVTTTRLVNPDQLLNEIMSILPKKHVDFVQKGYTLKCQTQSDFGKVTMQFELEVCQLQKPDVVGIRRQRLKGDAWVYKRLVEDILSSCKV
T1 sequence (P48775 whole entry): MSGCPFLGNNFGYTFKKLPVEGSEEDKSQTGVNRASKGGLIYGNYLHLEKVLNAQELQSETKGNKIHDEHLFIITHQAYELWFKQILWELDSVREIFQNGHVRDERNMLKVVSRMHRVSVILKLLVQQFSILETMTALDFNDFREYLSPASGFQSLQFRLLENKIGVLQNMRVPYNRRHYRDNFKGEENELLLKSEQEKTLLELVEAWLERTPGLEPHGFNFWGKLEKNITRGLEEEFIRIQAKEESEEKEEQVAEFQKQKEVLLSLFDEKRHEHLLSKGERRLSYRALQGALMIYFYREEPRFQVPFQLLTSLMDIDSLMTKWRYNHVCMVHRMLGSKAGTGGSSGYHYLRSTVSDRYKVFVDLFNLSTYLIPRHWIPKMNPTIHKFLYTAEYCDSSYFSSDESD
CDK5/P35, sequence (Q00535 whole entry): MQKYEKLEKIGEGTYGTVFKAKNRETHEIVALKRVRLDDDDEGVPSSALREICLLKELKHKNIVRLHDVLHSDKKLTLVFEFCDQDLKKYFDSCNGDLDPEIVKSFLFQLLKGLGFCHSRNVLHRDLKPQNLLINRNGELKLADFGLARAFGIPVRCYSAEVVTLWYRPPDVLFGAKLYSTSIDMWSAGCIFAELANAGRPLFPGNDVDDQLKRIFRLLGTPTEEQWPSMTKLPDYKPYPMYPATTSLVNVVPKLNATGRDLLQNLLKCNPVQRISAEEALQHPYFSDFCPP
CDK5/P35, sequence (Q15078 2-307 partner limits assumed): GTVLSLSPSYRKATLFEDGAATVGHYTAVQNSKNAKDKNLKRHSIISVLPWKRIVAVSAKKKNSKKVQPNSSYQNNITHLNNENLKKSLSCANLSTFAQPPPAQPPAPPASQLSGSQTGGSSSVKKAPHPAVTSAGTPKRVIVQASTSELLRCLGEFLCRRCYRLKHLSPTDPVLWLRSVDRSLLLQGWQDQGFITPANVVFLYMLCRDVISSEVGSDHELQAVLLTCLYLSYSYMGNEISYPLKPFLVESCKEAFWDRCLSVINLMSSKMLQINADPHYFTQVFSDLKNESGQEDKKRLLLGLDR
CDK5/P25, sequence (Q00535 whole entry): as the sequence (Q00535 whole entry) above
CDK5/P25, sequence (Q15078 99-307 partner limits assumed): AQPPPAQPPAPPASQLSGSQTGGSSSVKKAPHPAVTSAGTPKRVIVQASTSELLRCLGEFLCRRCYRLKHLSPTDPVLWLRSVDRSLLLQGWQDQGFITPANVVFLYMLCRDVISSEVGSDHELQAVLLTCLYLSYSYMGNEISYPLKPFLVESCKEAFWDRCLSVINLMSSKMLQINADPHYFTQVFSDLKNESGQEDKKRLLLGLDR
IDO1, sequence (P14902 whole entry): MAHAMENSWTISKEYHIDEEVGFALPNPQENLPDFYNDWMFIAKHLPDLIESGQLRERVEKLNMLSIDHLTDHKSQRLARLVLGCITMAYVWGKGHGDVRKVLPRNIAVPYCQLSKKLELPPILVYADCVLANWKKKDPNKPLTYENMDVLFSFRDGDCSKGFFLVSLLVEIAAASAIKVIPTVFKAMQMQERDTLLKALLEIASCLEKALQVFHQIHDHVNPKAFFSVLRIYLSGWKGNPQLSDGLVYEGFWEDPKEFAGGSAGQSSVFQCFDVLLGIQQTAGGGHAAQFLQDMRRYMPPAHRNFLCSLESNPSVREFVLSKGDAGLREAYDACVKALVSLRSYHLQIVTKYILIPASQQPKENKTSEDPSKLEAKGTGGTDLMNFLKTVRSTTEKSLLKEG
TYK2, sequence (P29597 whole entry): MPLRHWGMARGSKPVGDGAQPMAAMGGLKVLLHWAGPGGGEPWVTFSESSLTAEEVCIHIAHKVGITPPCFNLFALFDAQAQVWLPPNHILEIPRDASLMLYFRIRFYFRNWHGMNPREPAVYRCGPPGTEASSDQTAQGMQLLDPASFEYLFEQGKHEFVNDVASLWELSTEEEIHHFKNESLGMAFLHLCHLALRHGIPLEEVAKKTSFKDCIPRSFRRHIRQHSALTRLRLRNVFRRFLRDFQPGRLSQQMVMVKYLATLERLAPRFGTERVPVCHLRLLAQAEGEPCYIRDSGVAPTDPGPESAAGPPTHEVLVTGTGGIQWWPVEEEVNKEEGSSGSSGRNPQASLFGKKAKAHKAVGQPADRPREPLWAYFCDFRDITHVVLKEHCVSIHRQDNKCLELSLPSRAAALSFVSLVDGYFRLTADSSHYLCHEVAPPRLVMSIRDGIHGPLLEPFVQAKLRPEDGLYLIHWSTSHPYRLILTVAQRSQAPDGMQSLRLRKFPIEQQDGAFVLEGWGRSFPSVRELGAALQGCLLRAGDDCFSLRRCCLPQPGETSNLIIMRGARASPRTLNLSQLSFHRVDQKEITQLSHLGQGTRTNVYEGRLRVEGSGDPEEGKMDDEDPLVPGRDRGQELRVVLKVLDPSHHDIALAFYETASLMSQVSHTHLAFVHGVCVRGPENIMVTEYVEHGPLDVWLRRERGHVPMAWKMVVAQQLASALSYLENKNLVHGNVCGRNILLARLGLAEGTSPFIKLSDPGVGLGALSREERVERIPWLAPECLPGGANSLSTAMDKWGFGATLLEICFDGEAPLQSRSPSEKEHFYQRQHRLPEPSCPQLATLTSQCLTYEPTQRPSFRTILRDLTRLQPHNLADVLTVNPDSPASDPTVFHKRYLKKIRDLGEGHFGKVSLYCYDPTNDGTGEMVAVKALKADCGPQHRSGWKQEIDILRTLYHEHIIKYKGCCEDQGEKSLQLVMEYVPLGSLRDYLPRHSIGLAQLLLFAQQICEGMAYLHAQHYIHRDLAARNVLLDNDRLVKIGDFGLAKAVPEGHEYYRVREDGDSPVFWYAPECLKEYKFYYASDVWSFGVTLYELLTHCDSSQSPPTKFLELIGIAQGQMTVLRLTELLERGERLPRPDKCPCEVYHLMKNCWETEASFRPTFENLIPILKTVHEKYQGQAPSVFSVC

Row | SMILES | IC50 [1] | IC50 [2] | IC50 [3] | IC50 [4] | IC50 [5] | IC50 [6] | IC50 [7]
1 | O=C1NC(=O)C2(CCN(c3cc(Cl)cc4[nH]ncc34)CC2)N1 [CC-1] | 1.4 µM | 1.6 µM | 2 µM | 1.5 µM | 206 nM | 97 nM | 1.2 µM
2 | C[C@@H]1CN(c2cc(Br)cc3[nH]ncc23)CC[C@]12NC(=O)NC2=O (single isomer, unassigned) [Compound 1-1] | > 2 µM | > 2 µM | > 2 µM | > 2 µM | 247 nM | 77 nM | > 2 µM
